Earlier results as cited in patent publication US20090234270A1, “Therapy and device for treatment of nail infections” (Ondine International, Ltd., priority 2008, published 2009).

What was measured:
[1] = in vivo, po

| SMILES | side effects [1] | also measured |
| --- | --- | --- |
| OC(Cn1cncn1)(Cn1cncn1)c1ccc(F)cc1F [Fluconazole] | severe side effects | – |
| COC1=CC(=O)C[C@@H](C)[C@]12Oc1c(Cl)c(OC)cc(OC)c1C2=O [Griseofulvin] | undesired side effects | efficacy in onychomycosis (onychomycosis; oral medicine): largely ineffectual |
| CN(C/C=C/C#CC(C)(C)C)Cc1cccc2ccccc12 [Lamisil, terbinafine] | – | nail clearing, share of patients (onychomycosis; oral, once a day for 90 days, clearing for one year): 70-80% |
| CC12CCC(CC1=O)C2(C)C (stereo not drawn) [camphor] | – | solubility in water: poorly soluble in water |
| CCC(C)n1ncn(-c2ccc(N3CCN(c4ccc(OCC5COC(Cn6cncn6)(c6ccc(Cl)cc6Cl)O5)cc4)CC3)cc2)c1=O (stereo not drawn) [itraconazole] | somewhat severe | – |
